Source: patent US6603046B1, “Bis-aromatic a,β-unsaturated ketones” (Lica Pharmaceuticals A/S, priority 1992, dated 2003)
Where “and” joins values, the source holds several entries; their conditions need not be identical. Identical values can stand only once.

Columns and labels:
Mycobacteria = assay type: cell-based
P. yoelii strain YM = P. yoelii strain YM infection in mice, parasitemia and mortality (Example 16); assay type: in vivo, BALB/c mice; conditions: for % parasitemia, Mean: orally 100 mg/kg/dose 3 and 24 h after infection
[1] = D + 2, 10 mg per kg twice daily days +1 to +4
[2] = D + 3, 10 mg per kg twice daily days +1 to +4
[3] = D + 4, 10 mg per kg twice daily days +1 to +4
[4] = D + 5, 10 mg per kg twice daily days +1 to +4
[5] = D + 6, 10 mg per kg twice daily days +1 to +4
[6] = D + 7, 10 mg per kg twice daily days +1 to +4
[7] = D + 8, 10 mg per kg twice daily days +1 to +4
[8] = D + 9, 10 mg per kg twice daily days +1 to +4

For C=CC(C)(C)c1cc(/C=C/C(=O)c2ccc(O)cc2)c(OC)cc1O [Licochalcone A, licochalcone A], the “Species with MIC ≦ 20 μg/ml” value (Mycobacteria) was “M. kansasii and M. xenophii and M. marinum and M. tuberculosis and M. bovis and BCG”, the “Parasitemia, mean” value (P. yoelii strain YM; [1]) was 0.1% and the “Parasitemia, single mice” value (P. yoelii strain YM; [1]) was 0.1% and 0.01%. For the same compound, the “Parasitemia, mean” value (P. yoelii strain YM; [2]) was 0.2%, the “Parasitemia, single mice” value (P. yoelii strain YM; [2]) was 0.00% and 0.5% and 0.01% and the “Parasitemia, mean” value (P. yoelii strain YM; [3]) was 0.4%. The “Parasitemia, single mice” value (P. yoelii strain YM; [3]) was 0.00% and 1.2%, the “Parasitemia, single mice” value (P. yoelii strain YM; D + 4, 10 mg/kg/day in 2 injections, days +1 to +6, 10 mg/kg/day) was 1.5% and 4.0% and the “Parasitemia, single mice” value (P. yoelii strain YM; D + 4, 20 mg/kg/day in 2 injections, days +1 to +6, 20 mg/kg/day) was 0.01% and 0.0%. The “Parasitemia, single mice” value (P. yoelii strain YM; D + 4, 40 mg/kg/day in 2 injections, days +1 to +6, 40 mg/kg/day) was 0.1% and 0.5%, the “% parasitemia (mean ± SEM)” value (P. yoelii strain YM; D + 4, i.p. 5 mg/kg/day twice daily, 3 h after infection and D + 1 to D + 3) was 1.6 ± 0.6% and the “% parasitemia (mean ± SEM)” value (P. yoelii strain YM; D + 4, i.p. 10 mg/kg four times daily D + 4 to D + 7) was 14.2 ± 3.8%. The “% parasitemia (mean ± SEM)” value (P. yoelii strain YM; D + 4, i.p. 10 mg/kg twice daily D-1, D0) was 1.2 ± 1.1%, the “% parasitemia (mean ± SEM)” value (P. yoelii strain YM; D + 4, i.p. 10 mg/kg/day twice daily, 3 h after infection and D + 1 to D + 3) was 1.1 ± 1.0% and the “% parasitemia (mean ± SEM)” value (P. yoelii strain YM; D + 4, i.p. 15 mg/kg/day twice daily, 3 h after infection and D + 1 to D + 3) was 2.0 ± 2.0%. The “% parasitemia, Mean” value (P. yoelii strain YM; D + 4) was 1.0%, the “Parasitemia, mean” value (P. yoelii strain YM; [4]) was 0.7% and the “Parasitemia, single mice” value (P. yoelii strain YM; [4]) was 0.1% and 1.5% and 0.00%. The “Parasitemia, single mice” value (P. yoelii strain YM; D + 5, 10 mg/kg/day in 2 injections, days +1 to +6, 10 mg/kg/day) was 1.5% and 3.0%, the “Parasitemia, single mice” value (P. yoelii strain YM; D + 5, 20 mg/kg/day in 2 injections, days +1 to +6) was 0.0% and the “Parasitemia, single mice” value (P. yoelii strain YM; D + 5, 40 mg/kg/day in 2 injections, days +1 to +6, 40 mg/kg/day) was 0.5% and 1.0%. For the same compound, the “Parasitemia, mean” value (P. yoelii strain YM; [5]) was 2.2%, the “Parasitemia, single mice” value (P. yoelii strain YM; [5]) was 1.0% and 4.0% and 1.5% and the “Parasitemia, single mice” value (P. yoelii strain YM; D + 6, 10 mg/kg/day in 2 injections, days +1 to +6, 10 mg/kg/day) was 2.0% and 2.5%. For the same compound, the “% parasitemia (mean ± SEM)” value (P. yoelii strain YM; D + 6, 10 mg/kg/day twice daily, 3 h after infection, D + 1 to D + 5) was 0.1 ± 0.1%, the “% parasitemia (mean ± SEM)” value (P. yoelii strain YM; D + 6, 15 mg/kg/day twice daily, 3 h after infection, D + 1 to D + 5) was 0% and the “Parasitemia, single mice” value (P. yoelii strain YM; D + 6, 20 mg/kg/day in 2 injections, days +1 to +6) was 0.0%. The “Parasitemia, single mice” value (P. yoelii strain YM; D + 6, 40 mg/kg/day in 2 injections, days +1 to +6, 40 mg/kg/day) was 1.0% and 1.5%, the “% parasitemia (mean ± SEM)” value (P. yoelii strain YM; D + 6, i.p. 5 mg/kg/day twice daily, 3 h after infection and D + 1 to D + 3) was 13.8 ± 4.4% and the “% parasitemia (mean ± SEM)” value (P. yoelii strain YM; D + 6, i.p. 10 mg/kg four times daily D + 4 to D + 7) was 6.6 ± 1.5%. The “% parasitemia (mean ± SEM)” value (P. yoelii strain YM; D + 6, i.p. 10 mg/kg twice daily D-1, D0) was 9.7 ± 0.7%, the “% parasitemia (mean ± SEM)” value (P. yoelii strain YM; D + 6, i.p. 10 mg/kg/day twice daily, 3 h after infection and D + 1 to D + 3) was 14.2 ± 4.6% and the “% parasitemia (mean ± SEM)” value (P. yoelii strain YM; D + 6, i.p. 15 mg/kg/day twice daily, 3 h after infection and D + 1 to D + 3) was 10.4 ± 7.4%. For the same compound, the “Parasitemia, mean” value (P. yoelii strain YM; [6]) was 3.0%, the “Parasitemia, single mice” value (P. yoelii strain YM; [6]) was 2.0% and 4.0% and 3.0% and the “Parasitemia, single mice” value (P. yoelii strain YM; D + 7, 10 mg/kg/day in 2 injections, days +1 to +6, 10 mg/kg/day) was 8.0% and 10.0%. The “Parasitemia, single mice” value (P. yoelii strain YM; D + 7, 20 mg/kg/day in 2 injections, days +1 to +6, 20 mg/kg/day) was 0.01% and 0.05%, the “Parasitemia, single mice” value (P. yoelii strain YM; D + 7, 40 mg/kg/day in 2 injections, days +1 to +6, 40 mg/kg/day) was 4.5% and 5.8% and the “% parasitemia, Mean” value (P. yoelii strain YM; D + 7) was 9.7%. For the same compound, the “Parasitemia, mean” value (P. yoelii strain YM; [7]) was 6.7%, the “Parasitemia, single mice” value (P. yoelii strain YM; [7]) was 4.0% and 8.0% and the “Parasitemia, single mice” value (P. yoelii strain YM; D + 8, 10 mg/kg/day in 2 injections, days +1 to +6, 10 mg/kg/day) was 18.0% and 20.0%. The “% parasitemia (mean ± SEM)” value (P. yoelii strain YM; D + 8, 10 mg/kg/day twice daily, 3 h after infection, D + 1 to D + 5) was 0.7 ± 0.4%, the “% parasitemia (mean ± SEM)” value (P. yoelii strain YM; D + 8, 15 mg/kg/day twice daily, 3 h after infection, D + 1 to D + 5) was 0% and the “Parasitemia, single mice” value (P. yoelii strain YM; D + 8, 20 mg/kg/day in 2 injections, days +1 to +6, 20 mg/kg/day) was 1.0% and 1.5%. The “Parasitemia, single mice” value (P. yoelii strain YM; D + 8, 40 mg/kg/day in 2 injections, days +1 to +6, 40 mg/kg/day) was 12.0% and 15.0%, the “% parasitemia (mean ± SEM)” value (P. yoelii strain YM; D + 8, i.p. 5 mg/kg/day twice daily, 3 h after infection and D + 1 to D + 3) was 36.6 ± 5.7% and the “% parasitemia (mean ± SEM)” value (P. yoelii strain YM; D + 8, i.p. 10 mg/kg four times daily D + 4 to D + 7) was 17 ± 6.2%. For the same compound, the “% parasitemia (mean ± SEM)” value (P. yoelii strain YM; D + 8, i.p. 10 mg/kg twice daily D-1, D0) was 27.8 ± 16.1%, the “% parasitemia (mean ± SEM)” value (P. yoelii strain YM; D + 8, i.p. 10 mg/kg/day twice daily, 3 h after infection and D + 1 to D + 3) was 30.2 ± 6.4% and the “% parasitemia (mean ± SEM)” value (P. yoelii strain YM; D + 8, i.p. 15 mg/kg/day twice daily, 3 h after infection and D + 1 to D + 3) was 22 ± 11.6%. For the same compound, the “Parasitemia, mean” value (P. yoelii strain YM; [8]) was 23.0%, the “Parasitemia, single mice” value (P. yoelii strain YM; [8]) was 20.0% and 18.0% and 31.0% and the “Parasitemia, mean” value (P. yoelii strain YM; D + 10, 10 mg per kg twice daily days +1 to +4) was 25.5%. For the same compound, the “Parasitemia, single mice” value (P. yoelii strain YM; D + 10, 10 mg/kg/day in 2 injections, days +1 to +6, 10 mg/kg/day) was 39.0% and 42.0%, the “% parasitemia (mean ± SEM)” value (P. yoelii strain YM; D + 10, 10 mg/kg/day twice daily, 3 h after infection, D + 1 to D + 5) was 6.0 ± 3.8% and the “% parasitemia (mean ± SEM)” value (P. yoelii strain YM; D + 10, 15 mg/kg/day twice daily, 3 h after infection, D + 1 to D + 5) was 0%. For the same compound, the “Parasitemia, single mice” value (P. yoelii strain YM; D + 10, 20 mg/kg/day in 2 injections, days +1 to +6, 20 mg/kg/day) was 5.0% and 8.0%, the “Parasitemia, single mice” value (P. yoelii strain YM; D + 10, 40 mg/kg/day in 2 injections, days +1 to +6, 40 mg/kg/day) was 32.0% and 38.0% and the “mortality (no. of dead mice/total no. of tested mice)” value (P. yoelii strain YM; D + 10, i.p. 5 mg/kg/day twice daily to D + 3) was “(2/5)”. The “% parasitemia (mean ± SEM)” value (P. yoelii strain YM; D + 10, i.p. 5 mg/kg/day twice daily, 3 h after infection and D + 1 to D + 3) was 64 ± 5.0%, the “% parasitemia (mean ± SEM)” value (P. yoelii strain YM; D + 10, i.p. 10 mg/kg four times daily D + 4 to D + 7) was 27.6 ± 12.1% and the “% parasitemia (mean ± SEM)” value (P. yoelii strain YM; D + 10, i.p. 10 mg/kg twice daily D-1, D0) was 47.4 ± 27.7%. The “mortality (no. of dead mice/total no. of tested mice)” value (P. yoelii strain YM; D + 10, i.p. 10 mg/kg/day twice daily to D + 3) was “(1/5)”, the “% parasitemia (mean ± SEM)” value (P. yoelii strain YM; D + 10, i.p. 10 mg/kg/day twice daily, 3 h after infection and D + 1 to D + 3) was 48 ± 5.4% and the “mortality (no. of dead mice/total no. of tested mice)” value (P. yoelii strain YM; D + 10, i.p. 15 mg/kg/day twice daily to D + 3) was “(1/5)”. For the same compound, the “% parasitemia (mean ± SEM)” value (P. yoelii strain YM; D + 10, i.p. 15 mg/kg/day twice daily, 3 h after infection and D + 1 to D + 3) was 22 ± 11.6%.
